Results as given in PMC7395068, “The evolution of strategies to minimise the risk of human drug-induced liver injury (DILI) in drug discovery and development” (Archives of Toxicology, 2020).
Where two headings read alike, the source gives them in different places.

Experiments:
HepG2 [1] = conditions: cited from earlier work
PHH [2] = conditions: cited from earlier work
human hepatocytes = conditions: cited from earlier work
PHH spheroids = conditions: cited from earlier work
hLiMTs [3] = conditions: cited from earlier work
[4] = tested on: primary human hepatocytes, NIH3T3 fibroblasts, BSEP, CYP3A4; conditions: cited from earlier work
[5] = plasma free fraction; cited from earlier work
HepaRG spheroids = test: Combined HCI (HCS) and cellular ATP 3D assay in HepaRG spheroids; conditions: for AC50 / minimal effective concentration: Homo sapiens
[6] = tested on: THLE or HepG2 cells, isolated mitochondria, BSEP; conditions: cited from earlier work
[7] = cited from earlier work
[8] = read-out: Human plasma Cmax; total plasma Cmax.tot, median of 9 literature references; cited from earlier work
[9] = cited from earlier work; remark: listed apart in the source
HepaRG cells = conditions: cited from earlier work
hLiMTs [10] = test: Combined HCI (HCS) and cellular ATP 3D assay in hLiMTs; conditions: for AC50 / minimal effective concentration: Homo sapiens
PHH [11] = conditions: cited from earlier work; remark: listed apart in the source
[12] = Plasma free fraction (fu) and unbound Cmax (Cmax,u); format: in vitro ADME, human; conditions: unbound plasma Cmax
HepG2 [13] = conditions: cited from earlier work; remark: listed apart in the source
[14] = Phase 3 clinical trials; ref Aleo et al. 2019; cited from earlier work
rBsep = conditions: In vitro Assay; ref Dawson 2012; cited from earlier work
HepG2 cells [15] = conditions: In vitro Assay; ref O'Brien 2006; cited from earlier work
[16] = tested on: isolated mouse liver mitochondria; conditions: In vitro Assay; ref Porceddu 2012; cited from earlier work
HepG2 [17] = tested on: HepG2; set-up: method as in Albrecht 2019; conditions: In vitro Assay; ref Albrecht 2019; cited from earlier work
HepG2 cells [18] = conditions: In vitro Assay; ref Tolosa 2012; cited from earlier work
[19] = In vitro Assay, ref Albrecht 2019
[20] = In vitro Assay, ref Schadt 2015
[21] = Microtissue model structural based (HCI), combined HCS and ATP, MEC < 25 × Cmax.tot cut-off

SMILES: O=C1O[C@H]([C@@H](O)CO)C(O)=C1O [ascorbic acid]
- Cytotoxicity HepG2 48 hrs (HepG2 [1]; [19]): -VE
- Cytotoxicity PHH 48 hrs (PHH [2]; [19]): -VE

SMILES: N[C@@H]1[C@H]2CN(c3nc4c(cc3F)c(=O)c(C(=O)O)cn4-c3ccc(F)cc3F)C[C@@H]12 [trovafloxacin]
- Structural based (HCI) (human hepatocytes): +VE
- DILI in vitro assay prediction, Vorrink (2018) (PHH spheroids): identified
- hLiMTs ATP <100uM (hLiMTs [3]): -VE
- hLiMTs/100uM, Proctor (2017) (hLiMTs [3]): -VE
- DILI in vitro assay prediction, Schadt (2015) ([4]; BSEP & Metabolism based, ref Schadt et al. 2015): -VE
- Cellular toxicity (3T3 cells) [4, 20]: -VE
- Combined Assay [4, 20]: -VE
- GSH adduct HML [4, 20]: -VE
- Hepatocyte cellular toxicity [4, 20]: -VE
- MitoTox 3T3 [4, 20]: -VE
- TDI CYP3A4 [4, 20]: -VE
- hBSEP inhibition [4, 20]: -VE
- fu [5]: 0.240
- HepaRG <25x Avg Cmax ATP (HepaRG spheroids; HepaRG, ATP endpoint, cut-off <25x Avg Cmax): +ve
- HepaRG <100x Avg Cmaxu ATP (HepaRG spheroids; HepaRG, ATP endpoint, cut-off <100x Avg Cmaxu): +ve (<100x Avg Cmaxu)
- HepaRG <25x Avg Cmax HCS (HepaRG spheroids; HepaRG, HCS endpoints, cut-off <25x Avg Cmax): +ve
- HepaRG <100x Avg Cmaxu HCS (HepaRG spheroids; HepaRG, HCS endpoints, cut-off <100x Avg Cmaxu): +ve (<100x Avg Cmaxu)
- HepaRG <25x Avg Cmax All (HepaRG spheroids; HepaRG, all endpoints (ATP and HCS), cut-off <25x Avg Cmax): +ve
- HepaRG Cmax max All (HepaRG spheroids; HepaRG, all endpoints, Cmax max used): +ve
- HepaRG Cmax min All (HepaRG spheroids; HepaRG, all endpoints, Cmax min used): +ve
- HepaRG <10 uM All (HepaRG spheroids; HepaRG, all endpoints, cut-off <10 uM): +ve (<10 uM)
- HepaRG <100x Avg Cmaxu All (HepaRG spheroids; HepaRG, all endpoints, cut-off <100x Avg Cmaxu): +ve (<100x Avg Cmaxu)
- AC50 (HepaRG spheroids; HepaRG, read-out: ATP endpoint AC50): 12.9 µM
- minimal effective concentration (HepaRG spheroids; HepaRG, read-out: ATP endpoint MEC): 7.27 µM
- AC50 (HepaRG spheroids; HepaRG, read-out: HCS endpoint AC50): 24.9 µM
- minimal effective concentration (HepaRG spheroids; HepaRG, read-out: HCS endpoint MEC): 17.5 µM
- DILI prediction HepaRG spheroids (HCS-MEC) (HepaRG spheroids; [21]): +VE (MEC < 25 × Cmax.tot cut-off)
- Rule of Two hybrid HRM Score ≥3, Aleo (2019) [6]: +VE (key: +VE: Rule of Two hybrid HRM Score ≥3)
- Rule of Two hybrid HRM Score ≥8, Aleo (2019) [6]: -VE
- Assigned DILI category ([7]; in vivo): 3
- In vivo DILI ([7]; in vivo): +VE
- Cmax [8]: 5.02 µM
- DILI +VE (5-8), DILI -VE (-4) ([9]; in vivo): +VE
- DILI severity category (Chen et al. [2016]) ([9]; in vivo): Most
- DILI identification by high-throughput transcriptomics (HepaRG cells): identified
- AC50 (hLiMTs [10]; read-out: ATP endpoint AC50): 29.4 µM
- minimal effective concentration (hLiMTs [10]; read-out: ATP endpoint MEC): 16.4 µM
- AC50 (hLiMTs [10]; read-out: HCS endpoint AC50): 38.9 µM
- minimal effective concentration (hLiMTs [10]; read-out: HCS endpoint MEC): 20.1 µM
- DILI prediction hLiMTs (HCS-MEC) (hLiMTs [10]; [21]): +VE (MEC < 25 × Cmax.tot cut-off)
- hLiMTs <25x Avg Cmax ATP (hLiMTs [10]; hLiMTs, ATP endpoint, cut-off <25x Avg Cmax): +ve
- hLiMTs <100x Avg Cmaxu ATP (hLiMTs [10]; hLiMTs, ATP endpoint, cut-off <100x Avg Cmaxu): +ve (<100x Avg Cmaxu)
- hLiMTs <25x Avg Cmax HCS (hLiMTs [10]; hLiMTs, HCS endpoints, cut-off <25x Avg Cmax): +ve
- hLiMTs <100x Avg Cmaxu HCS (hLiMTs [10]; hLiMTs, HCS endpoints, cut-off <100x Avg Cmaxu): +ve (<100x Avg Cmaxu)
- hLiMTs <25x Avg Cmax All (hLiMTs [10]; hLiMTs, all endpoints (ATP and HCS), cut-off <25x Avg Cmax): +ve
- hLiMTs Cmax max All (hLiMTs [10]; hLiMTs, all endpoints, Cmax max used): +ve
- hLiMTs Cmax min All (hLiMTs [10]; hLiMTs, all endpoints, Cmax min used): +ve
- hLiMTs <10 uM All (hLiMTs [10]; hLiMTs, all endpoints, cut-off <10 uM): -ve
- hLiMTs <100x Avg Cmaxu All (hLiMTs [10]; hLiMTs, all endpoints, cut-off <100x Avg Cmaxu): +ve (<100x Avg Cmaxu)
- PHH ATP <100uM (PHH [11]): -VE
- PHH/100uM, Proctor (2017) (PHH [11]): -VE
- Human plasma Cmax,u [12]: 1.205 µM

SMILES: OC[C@H]1OC(O)[C@H](O)[C@@H](O)[C@@H]1O (some centres unmarked) [glucose, reference compound]
- Cytotoxicity HepG2 48 hrs (HepG2 [13]; [19]): +VE
- Cytotoxicity PHH 48 hrs (PHH [2]; [19]): +VE

SMILES: Oc1cc(Cl)ccc1Oc1ccc(Cl)cc1Cl [triclosan]
- In vivo DILI ([7]; ref Albrecht 2019): -VE
- Cytotoxicity HepG2 48 hrs (HepG2 [13]; [19]): +VE
- Cytotoxicity PHH 48 hrs (PHH [2]; [19]): -VE

SMILES: COc1ccc2[nH]cc(CCNC(C)=O)c2c1 [melatonin]
- Structural based (HCI) (human hepatocytes; In vitro Assay, ref Xu 2008): -VE
- Cytotoxicity HepG2 48 hrs (HepG2 [1]; [19]): -VE
- Cytotoxicity PHH 48 hrs (PHH [2]; [19]): -VE

SMILES: C[S+](C)[O-] [dimethylsulfoxide]
- In vivo DILI ([7]; in vivo): -VE
- Cytotoxicity HepG2 48 hrs (HepG2 [1]): -VE
- Cytotoxicity PHH 48 hrs (PHH [2]): -VE

SMILES: Cc1cc(OCCCS(C)(=O)=O)cc(C)c1-c1cccc(COc2ccc3c(c2)OC[C@H]3CC(=O)O)c1 [TAK-875, reference compound]
- Partition HRM hybrid scoring model classification ([6]; ref Aleo et al. 2019): DILI concern
- clinical liver finding [14]: liver injury

SMILES: COC(=O)c1ccc(O)cc1 [methylparaben]
- In vivo DILI ([7]; in vivo): -VE
- Cytotoxicity HepG2 48 hrs (HepG2 [13]): -VE
- Cytotoxicity PHH 48 hrs (PHH [2]): -VE

SMILES: CO[C@H]1/C=C/O[C@@]2(C)Oc3c(C)c(O)c4c(O)c(c(/C=N/N5CCN(C)CC5)c(O)c4c3C2=O)NC(=O)/C(C)=C\C=C\[C@H](C)[C@H](O)[C@@H](C)[C@@H](O)[C@@H](C)[C@H](OC(C)=O)[C@@H]1C [rifampicin, reference compound]
- DILI in vitro assay prediction, Vorrink (2018) (PHH spheroids; PHH spheroids, ATP, 14 days, IC20 < 20 × Cmax.tot, ref Vorrink et al. 2018): identified
- Inhibition of rBsep cutoff<1& cmax u>.2 (rBsep): +VE
- Inhibition of rBsep cutoff<3 (rBsep): +VE
- In vivo DILI ([7]; ref Albrecht 2019): +VE
- In vivo DILI ([7]; ref Dawson 2012): +VE
- In vivo DILI ([7]; ref Gustafsson 2014): +VE
- In vivo DILI ([7]; ref O'Brien 2006): +VE
- In vivo DILI ([7]; ref Porceddu 2012): +VE
- In vivo DILI ([7]; ref Schadt 2015): +VE
- In vivo DILI ([7]; ref Tolosa 2012): +VE
- Structural based (HCI) (HepG2 cells [15]): +VE
- Cytotoxicity PHH 48 hrs (PHH [2]; [19]): +VE
- DILI identification by high-throughput transcriptomics (HepaRG cells; HepaRG cells, BMCs in relation to 10 × human Cmax.tot, ref National Toxicology Program): identified
- in vitro data EC2<=1x Cmax [16]: +VE
- in vitro data EC20<=2uM [16]: -VE
- Cytotoxicity HepG2 48 hrs (HepG2 [17]): +VE
- Structural based (HCI) (HepG2 cells [18]): +VE

SMILES: CCO [ethanol]
- Cytotoxicity HepG2 48 hrs (HepG2 [1]): +VE
- Cytotoxicity PHH 48 hrs (PHH [2]): +VE

SMILES: CC(=O)N[C@@H](CS)C(=O)O [acetylcysteine]
- In vivo DILI ([7]; ref Albrecht 2019): -VE
- In vivo DILI ([7]; ref O'Brien 2006): -VE
- In vivo DILI ([7]; ref Tolosa 2012): -VE
- Cytotoxicity HepG2 48 hrs (HepG2 [1]; [19]): -VE
- Structural based (HCI) (HepG2 cells [15]): +VE (lowest HCI endpoint IC50 (or in the absence of dose–response < 100 µM) < 30 × total human plasma exposure levels (Cmax.tot))
- Cytotoxicity PHH 48 hrs (PHH [2]; [19]): -VE
- DILI +VE (5-8), DILI -VE (-4) ([9]; ref Chen 2016): -VE
- DILI severity category ([9]; ref Chen 2016): vNo-DILI-Concern
- Structural based (HCI) (HepG2 cells [18]): -VE
